Reference: publication PMC12703733, “Probing Guanidino Pendant or Bridged Groups in Cyclic Antimicrobial Peptides Derived from Temporin L: A Strategy to Improve Efficacy against Gram-Negative Bacteria” (Journal of Medicinal Chemistry, 2025)
Like-named read-outs stand apart in the source and are kept apart here. Bridge positions count the residues as written; N and C are the ends. Square brackets hold non-standard residues; d marks the D form. Peptide text beside a SMILES is read from it.

Tests used:
[1] = tested on: Gram-positive bacteria tested; assay: MIC panel, Gram-positive strains (geometric mean, range); assay type: cell-based; details: geometric mean of the MICs against Gram-positive bacteria tested
Experimental: (§1) The antimicrobial efficacy of the TLcyc analogues was assessed against a representative panel of Gram-positive and Gram-negative bacterial strains, by determining their minimal inhibitory concentrations (MIC), as summarized in Table . To provide an integrated measure of antimicrobial potency, we calculated the geometric mean (GM) of MIC values across all strains (GMall), as well as separately for Gram-positive (GMGram+) and Gram-negative (GMGram–) bacteria.
(§2) Bacterial strains used in this study were the Gram-positive S. aureus ATCC 25923, S. epidermidis ATCC 12228, B. megaterium BM11, S. agalactiae ATCC 27591, E. faecalis ATCC 29212 and the Gram-negative E. coli ATCC 25922, P. aeruginosa ATCC 27853, A. baumannii ATCC 19606, E. coli D21 and P. aeruginosa PAO1. […] Bacterial cells in the mid log phase were diluted in Muller Hinton (MH) at a concentration of 2 × 10^6 cell/mL. Aliquots of 50 μL of this bacterial suspension were added to 50 μL of MH containing serial 2-fold dilutions of the peptides (from 100 to 0.19 μM) in the wells a 96-well plate. Ciprofloxacin was used as antibiotic control. The plate was then incubated at 37 °C. MICs were obtained from three identical readings of four independent experiments.

[2] = tested on: Gram-negative bacteria tested; assay: MIC panel, Gram-negative strains (geometric mean); assay type: cell-based; details: geometric mean of the MICs against Gram-negative bacteria tested
Experimental: as §1, §2

all bacteria tested = assay: MIC panel, geometric mean over all strains; assay type: cell-based; details: geometric mean of the MICs against all bacteria tested
Experimental: as §1, §2

BEAS-2B cells = assay type: cell-based
Experimental: (§3) For the evaluation of peptides’ cytotoxicity, the human immortalized keratinocytes (HaCaT cells), purchased from AddexBio (San Diego, CA, USA), and BEAS-2B were used. HaCaT cells were cultured in Dulbecco’s modified Eagle’s medium supplemented with 4 mM glutamine (DMEM), 10% heat-inactivated fetal bovine serum (FBS), and 0.1 mg/mL of penicillin and streptomycin, at 37 °C and 5% CO2. BEAS-2B cells were cultured in RPMI, supplemented with 2 mM glutamine (DMEM), 10% heat-inactivated fetal bovine serum (FBS), 1 mM sodium pyruvate, and 0.1 mg/mL of penicillin and streptomycin, at 37 °C and 5% CO2. Cytotoxicity was tested in vitro using a colorimetric assay that relies on the intracellular reduction of the yellow 3-(4,5-dimethylthiazol-2-yl)-2,5-diphenyltetrazolium bromide salt (MTT) by mitochondrial dehydrogenases of metabolically active cells in formazan crystals (purple). About 4 × 10^4 HaCaT and BEAS-2B cells, suspended in DMEM supplemented with 2% FBS, were plated in triplicate wells of a 96-well microtiter plate. The plate was incubated overnight at 37 °C and 5% CO2. Then, the cells were treated with different concentrations of the peptide (from 100 to 3.12 μM) in a fresh serum-free medium for 2 h and for a longer time (24 h). Following peptide treatment, the medium was removed, and MTT (0.5 mg/mL) solution in Hank’s buffer (136 mM NaCl, 4.2 mM Na2HPO4, 4.4 mM KH2PO4, 5.4 mM KCl, 4.1 mM NaHCO3, pH 7.2, supplemented with 20 mM D-glucose) was added to each well of the plate, that was then incubated for 4 h at 37 °C and 5% CO2. The purple formazan crystals were dissolved using acidified 2-propanol and a microplate reader (Infinite M200; Tecan, Salzburg, Austria) was used to measure the absorbance of each well at 570 nm. The percentage of cell viability was calculated compared to the control, which consisted of cells without any peptide treatment (corresponding to 100% viability) and all data represent the mean of three independent experiments ± SEM.

[3] = assay type: cell-based; details: Cell viability (%)
Experimental: as §3

[4] = Circular dichroism in water (BeStSel); assay type: physicochemical; details: predicted from CD spectra in H2O using BeStSel
Experimental: The secondary structure of each peptide was studied in solution and in small unilamellar vesicles (SUVs) mimicking Gram-positive and Gram-negative membranes performing CD analysis. The CD spectrum for each peptide in solution was recorded at 150 μM, using the quartz cells of 0.1 cm path length with a Jasco J-1500 CD Spectrometer at 25 °C. SUVs at the concentration of 150 μM (P/L = 1) and […] (P/L = 0.4) were prepared as reported: the lipid film was hydrated with water for 1h and then sonicated for 30 min. CD spectra were recorded at the peptide/lipid ratio of 1:1 both in the presence with SUVs mimicking Gram-positive and Gram-negative membranes. CD spectra were recorded at 25 °C on a in a 0.1 cm quartz cell using three consecutive scans from 260 to 190 nm, 3 nm bandwidth, a time constant of 16 s, and a scan rate of 10 nm/min.

[5] = assay type: cell-based, P. aeruginosa
Experimental: The antibiofilm activity was evaluated as elsewhere reported. Bacteria grew at 37 °C until they reached an optical density (OD) of 0.8 (λ = 590 nm). The culture was diluted to a cell density of 1 × 10^6 colony-forming units (CFUs)/mL and aliquots of 100 μL of this suspension were dispensed into the wells of a 96-multiwell plate. After biofilm formation (incubation time = 20 h at 37 °C), all the planktonic cells were removed, and the wells were washed twice with PBS (150 μL). After washing, the wells were filled with PBS supplemented with different 2-fold serial dilutions of the tested peptides (from 50 to 1.56 μM). After peptide treatment (incubation time = 2 h at 37 °C) the wells were washed with PBS twice and filled with 150 μL of MTT (0.5 mg/mL) to evaluate biofilm viability after 4 h incubation at 37 °C. The reaction was then stopped by adding SDS (final concentration equal to 5% v/v). A microplate reader (Infinite M200; Tecan, Salzburg, Austria) was used to measure the absorbance of each well at 570 nm and the percentage of biofilm viability was calculated relative to the untreated samples.

[6] = tested on: human keratinocytes (HaCaT cells); assay type: cell-based
Procedure, shortened: (§4)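 Cells were plated at about 4 × 10^4/well in 2% FBS, then exposed to peptide at 100–3.12 μM in serum-free medium for 2 h or 24 h. Viability was measured by MTT reduction (0.5 mg/mL, 4 h, absorbance 570 nm) relative to untreated cells, as the mean ± SEM of three experiments.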

[7] = assay type: cell-based, human
Procedure, shortened: as §4

CC[C@H](C)[C@H](NC(=O)[C@H](CCCNC(=N)N)NC(=O)[C@H]1CCC(=O)NCCCC[C@H](NC(=O)[C@H](Cc2ccccc2)NC(=O)[C@H](Cc2c[nH]c3ccccc23)NC(=O)[C@@H]2CCCN2C(=O)[C@@H](NC(=O)[C@@H](N)Cc2ccccc2)C(C)C)C(=O)N[C@@H](CCCCN)C(=O)N[C@@H](Cc2ccccc2)C(=O)N[C@H](CC(C)C)C(=O)N1)C(=O)N[C@@H](CC(C)C)C(N)=O [Peptide 2, FVPWF[KKFle]RIL] (H-FVPWFKKF[dL][dE]RIL-NH2; lactam 6-10)
geometric mean GMGram+ [1]: 4.72 µM | geometric mean GMGram– [2]: 16.4 µM | geometric mean GMall (all bacteria tested): 8.81 µM | Cell viability (%) (BEAS-2B cells; 3.12 µM): 132% | Cell viability (%) (BEAS-2B cells; 6.25 µM): 119% | Cell viability (%) (BEAS-2B cells; 12.5 µM): 114% | Cell viability (%) (BEAS-2B cells; 25 µM): 102% | Cell viability (%) (BEAS-2B cells; 100 µM): 8% | viability at 6.25 µM [3]: 107% | viability at 12.5 µM [3]: 100% | viability at 25 µM [3]: 91% | viability at 100 µM [3]: 5% | Content in water (%) random [4]: 55% | Content in water (%) α-helix [4]: 7% | Content in water (%) β-strand [4]: 38% | viability [5]: > 70% | Cell viability (%) ([6]; 3.12 µM): 101 ± 2% | Cell viability (%) ([6]; 6.25 µM): 92 ± 2% | Cell viability (%) ([6]; 12.5 µM): 92 ± 1% | Cell viability (%) ([6]; 25 µM): 94 ± 1% | CC50 ([6]; 24 h): 56.4 µM | CC50 ([7]; CC50): > 50 µM | viability at 3.12 µM ([7]; Cell viability (%)): 102% | viability at 6.25 µM ([7]; Cell viability (%)): 96% | viability at 12.5 µM ([7]; Cell viability (%)): 95% | viability at 25 µM ([7]; Cell viability (%)): 95% | viability at 50 µM ([7]; Cell viability (%)): 64%
